This note sets out measurements from patent US10287300B2 (Merck Patent GmbH, priority 2012, dated 2019).

Assay [1] concerns the target P70S6K (T412E mutant, Millipore) (Homo sapiens (Human), UniProt P23443, T412E). Briefly: P70S6K enzyme assay. It counts as biochemical. The settings on record: 24 μM ATP, 90 min at 25° C. The method, then:
P70S6K inhibitor compounds were diluted and plated in 96 well plates. A reaction mixture including the following components was then added to the compound plate to initiate the enzyme reaction; P70S6K (3 nM, T412E mutant, Millipore) was mixed with 24 μM ATP in an assay buffer containing 100 mM Hepes (pH 7.5), 5 mM MgCl2, 1 mM DTT, 0.015% Brij and 1 μM of the substrate peptide FITC-AHA-AKRRRLSSLRA-OH (derived from the S6 ribosomal protein sequence, FITC=fluorescein isothiocyanate, AHA=6-aminohexanoic acid). The reaction was incubated for 90 min at 25° C., before the addition of 10 mM EDTA to stop the reaction. The proportion of substrate and product (phosphorylated) peptide was analysed on a Caliper Life Sciences Lab Chip 3000, using a pressure of −1.4 psi, and upstream and downstream voltages of −3000 and −700 respectively. Product peaks were resolved before substrate peaks on the resulting chromatograms.

In the next assay the target is His-AKT (Full Length) (Homo sapiens (Human), UniProt P31749). The assay is described as follows: AKT enzyme assay. It is filed as biochemical. The note with it: 160 uM ATP, 90 min at 25° C. As for the experimental part:
A TTP Mosquito liquid handling instrument was used to place 125 nl of the appropriate concentration of inhibitor in 100% DMSO (for a dose response curve calculation) into each well of a 384-well plate. To this reaction components were added to a final volume of 12.5 μl: • 0.1 ng/μl His-AKT (Full Length), (Invitrogen, Part # P2999, Lot #641228C). • 160 uM ATP (Fluka, 02055) • 1 mM DTT (Sigma, D0632) • 1 mM MgCl2 (Sigma, M1028) • 1 μM substrate peptide (sequence FITC-AHA-GRPRTSSFAEG-NH2), • synthesized by Tufts Peptide Synthesis service. • 100 mM HEPES pH 7.5 (Calbiochem, 391338) • 0.015% Brij-35 (Sigma, B4184)
The reaction was incubated for 90 min at 25° C., and then stopped by the addition of 70 μl of Stop buffer (100 mM HEPES pH 7.5, 0.015% Brij-35, 10 mM EDTA (Sigma, E7889)).
The plate was read on a Caliper LC 3000 in an Off-Chip mobility shift assay format, using the following parameters for a 12-sipper chip: screening pressure −2.3 psi, upstream voltage −500, and downstream voltage −3000. These conditions caused unphosphorylated substrate and phosphorylated product peptide to resolve as separate peaks allowing direct measurement of percentage of conversion of substrate to product. The percent conversion was plotted against concentration of inhibitor to produce a sigmoidal dose response curve, from which an IC50 was calculated.

One may read the IC50 as the concentration needed to halve the response being measured.

Sequence of P70S6K (T412E mutant, Millipore) (P23443 whole entry T412E): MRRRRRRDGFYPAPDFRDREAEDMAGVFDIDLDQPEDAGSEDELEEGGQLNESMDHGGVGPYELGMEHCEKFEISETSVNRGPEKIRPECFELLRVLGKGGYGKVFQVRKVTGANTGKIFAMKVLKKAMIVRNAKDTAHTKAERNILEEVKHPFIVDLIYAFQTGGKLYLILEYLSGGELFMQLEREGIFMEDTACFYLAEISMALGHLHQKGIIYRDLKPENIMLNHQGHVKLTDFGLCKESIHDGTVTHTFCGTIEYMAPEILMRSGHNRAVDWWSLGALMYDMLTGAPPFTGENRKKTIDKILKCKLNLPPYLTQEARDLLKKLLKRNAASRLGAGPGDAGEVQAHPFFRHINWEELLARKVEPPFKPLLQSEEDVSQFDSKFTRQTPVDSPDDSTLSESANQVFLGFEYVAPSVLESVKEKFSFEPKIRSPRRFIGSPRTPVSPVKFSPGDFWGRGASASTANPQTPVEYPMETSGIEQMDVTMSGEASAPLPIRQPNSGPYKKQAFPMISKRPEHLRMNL
Sequence of His-AKT (Full Length) (P31749 whole entry): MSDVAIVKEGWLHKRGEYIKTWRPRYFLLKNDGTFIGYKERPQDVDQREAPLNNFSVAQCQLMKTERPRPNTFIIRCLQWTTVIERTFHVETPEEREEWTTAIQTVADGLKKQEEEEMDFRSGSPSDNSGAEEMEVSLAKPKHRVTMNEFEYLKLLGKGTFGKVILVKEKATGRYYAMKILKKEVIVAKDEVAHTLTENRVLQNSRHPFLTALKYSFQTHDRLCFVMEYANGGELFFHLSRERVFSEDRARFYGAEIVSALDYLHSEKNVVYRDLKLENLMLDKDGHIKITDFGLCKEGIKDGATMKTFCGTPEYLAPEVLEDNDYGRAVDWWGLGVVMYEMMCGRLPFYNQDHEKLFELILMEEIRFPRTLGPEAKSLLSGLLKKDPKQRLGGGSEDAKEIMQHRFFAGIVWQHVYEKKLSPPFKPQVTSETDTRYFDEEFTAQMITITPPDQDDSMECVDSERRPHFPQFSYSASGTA

With `CN(C)CC(c1ccc(Cl)cc1)N1CCN(c2ncnc3c2NC(=O)CN3)CC1` (stereo not drawn) [Compound A26, 4-{4-[2-dimethylamino-1-(4-chloro-phenyl)-ethyl]-piperazin-1-yl}-7,8-dihydro-5H-pteridin-6-one], the IC50 in assay [1] fell in the range of 501 to 1000 nM; against His-AKT (Full Length) it was 101 to 500 nM.

In the case of `CN(C)CC(c1cccc(Cl)c1)N1CCN(c2ncnc3c2NC(=O)CN3)CC1` (stereo not drawn) [Compound A27, 4-{4-[2-dimethylamino-1-(3-chloro-phenyl)-ethyl]-piperazin-1-yl}-7,8-dihydro-5H-pteridin-6-one], the IC50 (in assay [1]; against His-AKT (Full Length)) was over 1000 nM each time.

As for `CN(C)CC(c1ccc(C(F)(F)F)cc1)N1CCN(c2ncnc3c2NC(=O)CN3)CC1` (stereo not drawn) [Compound A28, 4-{4-[2-dimethylamino-1-(4-trifluoromethyl-phenyl)-ethyl]-piperazin-1-yl}-7,8-dihydro-5H-pteridin-6-one], the results for the IC50 (in assay [1]; against His-AKT (Full Length)) were 501 to 1000 nM and 101 to 500 nM, respectively.

Take `O=C1CNc2ncnc(N3CCN(C(CN4CCCC4)c4ccc(F)cc4)CC3)c2N1` (stereo not drawn) [Compound A29, 4-{4-[1-(4-fluoro-phenyl)-2-(pyrrolidin-yl)-ethyl]-piperazin-1-yl}-7,8-dihydro-5H-pteridin-6-one]: the IC50 (in assay [1]; at His-AKT (Full Length)) was over 1000 nM throughout.

Take `O=C1CNc2ncnc(N3CCN(C(CN4CCCC4)c4ccc(Cl)cc4)CC3)c2N1` (stereo not drawn) [Compound A30, 4-{4-[1-(4-chloro-phenyl)-2-(pyrrolidin-yl)-ethyl]-piperazin-1-yl}-7,8-dihydro-5H-pteridin-6-one]: the IC50 (in assay [1]; against His-AKT (Full Length)) was 501 to 1000 nM throughout.

As to `O=C1CNc2ncnc(N3CCN(C(CN4CCCCC4)c4ccc(F)cc4)CC3)c2N1` (stereo not drawn) [Compound A31, 4-{4-[1-(4-fluoro-phenyl)-2-(piperidin-yl)-ethyl]-piperazin-1-yl}-7,8-dihydro-5H-pteridin-6-one], the IC50 (in assay [1]; on His-AKT (Full Length)) was over 1000 nM each time.

For the compound `O=C1CNc2ncnc(N3CCN(C(CN4CCCCC4)c4ccc(Cl)cc4)CC3)c2N1` (stereo not drawn) [Compound A32, 4-{4-[1-(4-chloro-phenyl)-2-(piperidin-yl)-ethyl]-piperazin-1-yl}-7,8-dihydro-5H-pteridin-6-one], the IC50 in assay [1] was over 1000 nM; on His-AKT (Full Length), 501 to 1000 nM.

As to `O=C1CNc2ncnc(N3CCN(C(CN4CCCCC4)c4ccc(C(F)(F)F)cc4)CC3)c2N1` (stereo not drawn) [Compound A33, 4-{4-[1-(4-trifluoro-phenyl)-2-(piperidin-yl)-ethyl]-piperazin-1-yl}-7,8-dihydro-5H-pteridin-6-one], the results for the IC50 (in assay [1]; at His-AKT (Full Length)) were over 1000 nM and 501 to 1000 nM, respectively.

In the case of `O=C1CNc2ncnc(N3CCN(C(CN4CCCC4)c4ccc(C(F)(F)F)cc4)CC3)c2N1` (stereo not drawn) [Compound A34, 4-{4-[2-Pyrrolidin-1-yl-1-(4-trifluoromethyl-phenyl)-ethyl]-piperazin-1-yl}-7,8-dihydro-5H-pteridin-6-one], the IC50 (in assay [1]; on His-AKT (Full Length)) was over 1000 nM each time.

As to `O=C1CNc2ncnc(N3CCN(C(CN4CCCC4)c4ccccc4F)CC3)c2N1` (stereo not drawn) [Compound A35, 4-(4-(1-(2-fluorophenyl)-2-(pyrrolidin-1-yl)ethyl)piperazin-1-yl)-7,8-dihydropteridin-6(5H)-one], the IC50 (in assay [1]; against His-AKT (Full Length)) was over 1000 nM each time.

As to `CN(C)CC(c1ccccc1F)N1CCN(c2ncnc3c2NC(=O)CN3)CC1` (stereo not drawn) [Compound A36, 4-(4-(2-(dimethylamino)-1-(2-fluorophenyl)ethyl)piperazin-1-yl)-7,8-dihydropteridin-6(5H)-one], the IC50 (in assay [1]; at His-AKT (Full Length)) was over 1000 nM each time.

`O=C1CNc2ncnc(N3CCN(C(CN4CCC4)c4ccccc4F)CC3)c2N1` (stereo not drawn) [Compound A37, 4-(4-(2-(azetidin-1-yl)-1-(2-fluorophenyl)ethyl)piperazin-1-yl)-7,8-dihydropteridin-6(5H)-one]: the IC50 (in assay [1]; at His-AKT (Full Length)) was over 1000 nM each time.
